Measured values published in PubChem BioAssay (NCI).
Values joined by “and” are separate entries in the source; they are usually repeats but may differ in a detail not shown here. Identical values can stand only once.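 48-hour exposure; five concentrations; linearly interpolated endpoints. Abbreviation: GI50, concentration required for 50% inhibition of growth. TGI marks complete inhibition of growth.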

What was measured:
Experiment in all cases: NCI tumour cell line growth inhibition, 48 h
SK-OV-3 ovarian = tested on: SK-OV-3 ovarian
HOP-62 NSCLC = tested on: HOP-62 NSCLC
RPMI-8226 leukemia = tested on: RPMI-8226 leukemia
COLO 205 colon = tested on: COLO 205 colon
IGROV1 ovarian = tested on: IGROV1 ovarian
786-0 renal = tested on: 786-0 renal
SNB-75 CNS = tested on: SNB-75 CNS
OVCAR-3 ovarian = tested on: OVCAR-3 ovarian
A549 NSCLC = tested on: A549 NSCLC
SK-MEL-5 melanoma = tested on: SK-MEL-5 melanoma

SMILES	GI50 (SK-OV-3 ovarian)	TGI (SK-OV-3 ovarian)	GI50 (HOP-62 NSCLC)	TGI (HOP-62 NSCLC)	GI50 (RPMI-8226 leukemia)	TGI (RPMI-8226 leukemia)	GI50 (COLO 205 colon)	TGI (COLO 205 colon)	GI50 (IGROV1 ovarian)	TGI (IGROV1 ovarian)	GI50 (786-0 renal)	TGI (786-0 renal)	GI50 (SNB-75 CNS)	TGI (SNB-75 CNS)	GI50 (OVCAR-3 ovarian)	TGI (OVCAR-3 ovarian)	GI50 (A549 NSCLC)	TGI (A549 NSCLC)	GI50 (SK-MEL-5 melanoma)	TGI (SK-MEL-5 melanoma)
Cc1cn(Cc2ccccc2CCl)c(=O)n(Cc2ccccc2CCl)c1=O	3.27 µM	9.62 µM	2.31 µM	4.13 µM	1.93 µM	6.36 µM	1.53 µM	3.54 µM	0.53 µM	2.25 µM	1.67 µM	3.39 µM	1.81 µM	3.79 µM	1.85 µM	3.65 µM	3.9 µM	14.2 µM	1.56 µM	2.93 µM
O=C1NN=C(c2ccc([N+](=O)[O-])cc2)C1n1nc(-c2ccccc2)c2ccccc2c1=O (stereo unspecified)		> 100 µM		> 100 µM		> 70 µM		> 100 µM		> 100 µM		> 100 µM		> 100 µM		> 100 µM		> 100 µM		> 100 µM
CNc1ncc2cc(Oc3ccc(F)cc3F)c(=O)n(C)c2n1	> 25 µM	> 25 µM	> 25 µM	> 25 µM	> 25 µM	> 25 µM	> 25 µM	> 25 µM	> 25 µM	> 25 µM	> 25 µM	> 25 µM	9.33 µM	> 25 µM	> 25 µM	> 25 µM	> 25 µM	> 25 µM	> 25 µM	> 25 µM
c1ccc(/C(=N\Nc2ccc3ccccc3n2)c2ccccn2)cc1	0.612 µM	18 µM	1.21 µM	15.9 µM	0.503 µM	3.68 µM	0.407 µM	5.08 µM	0.433 µM	3.23 µM	0.509 µM	4.35 µM	2.56 µM	> 85.2 µM	0.291 µM	2.49 µM	1.11 µM	> 36.2 µM	0.487 µM	2.92 µM
OC1c2ccccc2C2C(O)c3ccccc3C12 (stereo unspecified)		> 100 µM		> 100 µM		> 100 µM		> 100 µM		> 100 µM		> 100 µM		> 100 µM		> 100 µM		> 100 µM		> 100 µM
O=C(CC(=O)C1CCOC1=O)C(=O)Nc1ccc(Cl)cc1 (stereo unspecified)		> 100 µM		> 100 µM		> 100 µM		> 100 µM		> 100 µM		> 100 µM		> 100 µM		> 100 µM		> 100 µM		> 100 µM
c1ccc2c(CN3CCC(C4CCN(Cc5cccc6ccccc56)CC4)CC3)cccc2c1		75.2 µM and > 100 µM		21.4 µM and > 69.4 µM		15 µM and 10.9 µM		3.39 µM and 3.65 µM	32.2 µM and > 79.4 µM	> 100 µM		32.2 µM and 34.5 µM	2.77 µM and > 27.7 µM			> 100 µM		> 100 µM		14.2 µM and 9.41 µM
Cn1c2ccccc2c2[nH]c3ccccc3c(=O)c21		> 100 µM		> 100 µM		> 100 µM		> 100 µM		> 100 µM		> 100 µM		> 100 µM		> 100 µM		> 100 µM		> 100 µM
Cc1cc(C)nc(NS(=O)(=O)c2ccc(NC(=O)c3cccc4c(N)c5ccccc5nc34)cc2)n1		> 100 µM		> 100 µM		> 100 µM		> 100 µM		> 100 µM		> 100 µM		> 100 µM		> 100 µM		> 100 µM		> 100 µM
